Measurements reported in patent US6372749B1, “Pyrazolo[1,5-a]pyrimidine derivatives” (Otsuka Pharmaceutical Factory, Inc., priority 1998, dated 2002).

How the values were obtained:
S.D. rats = assay: Recovery of pain threshold after substance P injection (Randall-Sellitto method); type: in vivo; details: male S.D. rats, oral 5% gum arabic suspension 10 ml/kg, substance P 25 ng/0.1 ml s.c. in left hind paw
Procedure: Using 6-week-old male S.D. rats (7 rats in each group), the pain threshold of each rat's left hind paw plantar was measured using an Analgesy-Meter (product of Unicom) in accordance with the Randall-Sellitto method [Randall, L. O. and Sellitto, J. J., Arch. Int. Pharmacodyn., 111, 409 (1957)]. The value thus obtained was termed “pre-value”.
One hour after the measurement of the pre-value, a 5% gum arabic suspension containing the compound of the invention was orally administered to the rats of the test group in an amount of 10 ml/kg, whereas a 5% gum arabic suspension (not containing the compound of the invention) was orally administered to the rats of the control group in an amount of 10 ml/kg.
One hour later, a physiological saline solution containing substance P (25 ng/0.1 ml) was subcutaneously injected into the left hind paw plantar of each rat.
The pain threshold of each rat's left hind paw was measured in the same manner as above at predetermined time intervals from the substance P injection. The measured value was termed “post-value”.
The recovery (%) of the pain threshold was calculated from the post-values and the pre-values of the test group and the control group, by means of the following formula: [formula]

[1] = time of measurement 60 minutes later

| SMILES | Recovery (%) of the pain threshold (the highest recovery %) (S.D. rats; [1]) [%] | Recovery (%) of the pain threshold (the highest recovery %) (S.D. rats; time of measurement 30 minutes later) [%] | melting point |
| --- | --- | --- | --- |
| CCCCc1cc(/C=C/c2cc(OC)c(OC)c(OC)c2)n2nccc2n1 [Example 1, (E)-5-n-butyl-7-[2-(3,4,5-trimethoxyphenyl)ethenyl]pyrazolo[1,5-a]pyrimidine] | 47.8 |  |  |
| CCCCc1cc(/C=C/c2ccc(Cl)cc2)n2nccc2n1 [Example 8, (E)-5-n-butyl-7-[2-(4-chlorophenyl)ethenyl]pyrazolo[1,5-a]pyrimidine] |  | 36.2 |  |
| CCCCc1cc(/C(=C/c2cc(OC)c(OC)c(OC)c2)SC)n2nccc2n1 [Example 12, (Z)-5-n-butyl-7-[1-methylthio-2-(3,4,5-trimethoxyphenyl)ethenyl]pyrazolo[1,5-a]pyrimidine] | 41.5 |  |  |
| CCCCc1cc(/C(=C\c2cc(OC)c(OC)c(OC)c2)C(=O)O)n2nccc2n1 [Example 40, (E) 2-(5-n-butylpyrazolo[1,5-a]pyrimidin-7-yl)-3-(3,4,5-trimethoxyphenyl)acrylic Acid] | 47.2 |  |  |
| CCCCc1cc(/C(=C\c2cc(OC)c(O)c(OC)c2)C(=O)O)n2nccc2n1 [Example 109, (E) 2-(5-n-butylpyrazolo[1,5-a]pyrimidin-7-yl)-3-(4-hydroxy-3,5-dimethoxyphenyl)acrylic acid] | 52.1 |  | > 152 °C (dec.) |
